Assay results from ChEMBL document CHEMBL1136258, “Design, synthesis and antifungal activity of a novel water soluble prodrug of antifungal triazole” (Bioorg Med Chem Lett, 2003).
Where “and” joins values, the source holds several entries; their conditions need not be identical. Identical values can stand only once.

Columns and labels:
[1] = Solubility in water; format: physicochemical
Rattus norvegicus [2] = assay: Efficacy against […] CY1003 on day 14th after intravenous administration in rat; format: functional
[3] = Half life in human plasma; format: ADME, cell-free
Rattus norvegicus [4] = assay: Efficacy against Candida albicans CY3003 on day 14th after intravenous administration in rat; format: functional
Rattus norvegicus [5] = assay: Efficacy against Candida tropicalis CY5042 on day 14th after intravenous administration in rat; format: functional
Rattus norvegicus [6] = assay: Efficacy against Candida albicans CY1002 on day 14th after peroral administration in rat; format: functional; settings: po
[7] = (§1) Half life in rat plasma; format: ADME; settings: plasma
Rattus norvegicus [8] = assay: Efficacy against […] CF924390 on day 14th after intravenous administration in rat; format: functional
Rattus norvegicus [9] = assay: Efficacy against […] CF924390 on day 14th after peroral administration in rat; format: functional
Rattus norvegicus [10] = assay: Efficacy against […] CY1003 on day 14th after peroral administration in rat; format: functional; settings: po
Rattus norvegicus [11] = assay: Efficacy against Candida tropicalis CY5042 on day 14th after peroral administration in rat; format: functional; settings: po
Rattus norvegicus [12] = assay: Efficacy against Candida albicans CY1002 on day 14th after intravenous administration in rat; format: functional
Rattus norvegicus [13] = assay: Efficacy against Candida albicans CY3003 on day 14th after peroral administration in rat; format: functional; settings: po
Rattus norvegicus [14] = species: Rattus norvegicus; assay: Half life in rat plasma; Not detected; format: ADME
[15] = Half life in monkey plasma; Not detected; format: ADME, cell-free; settings: cercopithecidae
[16] = Half life in monkey plasma; format: ADME, cell-free; settings: cercopithecidae
[17] = Half life in human plasma; Not detected; format: ADME, cell-free
Rattus norvegicus [18] = species: Rattus norvegicus; assay: as §1; format: ADME

## CNCC(=O)OCc1cc(F)ccc1N(C)C(=O)OC(C)[n+]1cnn(C[C@](O)(c2cc(F)ccc2F)[C@@H](C)c2nc(-c3ccc(C#N)cc3)cs2)c1.[Cl-] (stereo partly drawn)
[1]
  solubility: > 10000 µg/mL

## CNCC(=O)OCc1cccnc1N(C)C(=O)OC(C)[n+]1cnn(C[C@](O)(c2cc(F)ccc2F)[C@@H](C)c2nc(-c3ccc(C#N)cc3)cs2)c1.[Cl-] (stereo partly drawn)
Rattus norvegicus [2]
  ED50: 12 µmol/kg
[3]
  half-life: < 1 min
Rattus norvegicus [4]
  ED50: 1.5 µmol/kg
[1]
  solubility: > 100000 µg/mL
Rattus norvegicus [5]
  ED50: 0.9 µmol/kg
Rattus norvegicus [6]
  ED50: 4 µmol/kg
[7]
  half-life: < 1 min
Rattus norvegicus [8]
  ED50: 6.8 µM/kg
Rattus norvegicus [8]; Rattus norvegicus, iv, read-out: ED50
  ED50: 6 µmol/kg
Rattus norvegicus [9]
  ED50: 8.9 µM/kg
Rattus norvegicus [9]; Rattus norvegicus, po, read-out: ED50
  ED50: 9.9 µmol/kg
Rattus norvegicus [10]
  ED50: 14 µmol/kg
Rattus norvegicus [11]
  ED50: 0.8 µmol/kg
Rattus norvegicus [12]
  ED50: 4 µmol/kg
Rattus norvegicus [13]
  ED50: 2.6 µmol/kg
Rattus norvegicus [14]
  T1/2: Not detected
[15]
  T1/2: Not detected
[16]
  half-life: < 1 min
[17]
  T1/2: Not detected

## CC(=O)OCc1ccccc1N(C)C(=O)OC[n+]1cnn(C[C@](O)(c2cc(F)ccc2F)[C@@H](C)c2nc(-c3ccc(C#N)cc3)cs2)c1.[Cl-]
[1]
  solubility: 1000 µg/mL

## CC(=O)OCCCN(C)C(=O)OC[n+]1cnn(C[C@](O)(c2cc(F)ccc2F)[C@@H](C)c2nc(-c3ccc(C#N)cc3)cs2)c1.[I-]
[1]
  solubility: < 1000 µg/mL

## C[C@@H](c1nc(-c2ccc(C#N)cc2)cs1)[C@](O)(Cn1c[n+](COC(=O)N(C)c2ccccc2)cn1)c1cc(F)ccc1F.[Cl-]
[1]
  solubility: < 1000 µg/mL
[7]
  half-life: 1740 min

## CNCC(=O)OCc1cc(F)c(F)cc1N(C)C(=O)OC(C)[n+]1cnn(C[C@](O)(c2cc(F)ccc2F)[C@@H](C)c2nc(-c3ccc(C#N)cc3)cs2)c1.[Cl-] (stereo partly drawn)
[3]
  T1/2: 8 min
  half-life: 6 min
[1]
  solubility: > 10000 µg/mL
Rattus norvegicus [18]
  T1/2: < 2 min and 5 min
[16]
  half-life: 6 min

## CC(=O)OC[C@@H]1CCCN1C(=O)OC[n+]1cnn(C[C@](O)(c2cc(F)ccc2F)[C@@H](C)c2nc(-c3ccc(C#N)cc3)cs2)c1.[I-]
[1]
  solubility: < 1000 µg/mL

## CC(=O)OCCN(C)C(=O)OC[n+]1cnn(C[C@](O)(c2cc(F)ccc2F)[C@@H](C)c2nc(-c3ccc(C#N)cc3)cs2)c1.[I-]
[1]
  solubility: < 1000 µg/mL

## CNCC(=O)OCc1c(F)cccc1N(C)C(=O)OC(C)[n+]1cnn(C[C@](O)(c2cc(F)ccc2F)[C@@H](C)c2nc(-c3ccc(C#N)cc3)cs2)c1.[Cl-] (stereo partly drawn)
[3]
  half-life: 2 min
[1]
  solubility: > 10000 µg/mL
[7]
  half-life: < 2 min
Rattus norvegicus [18]
  T1/2: 3 min
[16]
  T1/2: 3 min
  half-life: 2 min

## CNCC(=O)OCc1ccc(Cl)cc1N(C)C(=O)OC(C)[n+]1cnn(C[C@](O)(c2cc(F)ccc2F)[C@@H](C)c2nc(-c3ccc(C#N)cc3)cs2)c1.[Cl-] (stereo partly drawn)
[3]
  T1/2: 4 min
  half-life: 3 min
[1]
  solubility: > 10000 µg/mL
[7]
  half-life: < 2 min
Rattus norvegicus [18]
  T1/2: 4 min
[16]
  T1/2: 2 min and 5 min

## CCC(C)n1ncn(-c2ccc(N3CCN(c4ccc(OCC5COC(Cn6cncn6)(c6ccc(Cl)cc6Cl)O5)cc4)CC3)cc2)c1=O (stereo not drawn) [ITRACONAZOLE]
Rattus norvegicus [6]
  ED50: 4.7 µmol/kg
Rattus norvegicus [9]
  ED50: 7.2 µM/kg and 2.5 µM/kg
Rattus norvegicus [10]
  ED50: 8.9 µmol/kg
Rattus norvegicus [11]
  ED50: 1.7 µmol/kg
Rattus norvegicus [13]
  ED50: 1.7 µmol/kg
